# Results: BindingDB's records for doi:10.1016/j.bmcl.2018.01.029 (Presidio Pharmaceuticals, 2018)
# Tests used:
# [1] = Inhibition of HCV genotype 1a NS5A polymerase infected in human HuH7 replicon cells by luciferase reporter gene assay
# [2] = Inhibition of HCV genotype 1b NS5B polymerase infected in human HuH7 replicon cells by luciferase reporter gene assay
# [3] = Inhibition of HCV genotype 1a NS5A polymerase L31V/Y93H double mutant infected in human HuH7 replicon cells by luciferase reporter gene assay
# [4] = Inhibition of HCV genotype 4a NS5B polymerase infected in human HuH7 replicon cells by luciferase reporter gene assay
# [5] = Inhibition of HCV genotype 3a NS5B polymerase infected in human HuH7 replicon cells by luciferase reporter gene assay
# [6] = Inhibition of HCV genotype 2a NS5B polymerase infected in human HuH7 replicon cells by luciferase reporter gene assay
EC50 [1],EC50 [2],SMILES,EC50 [3],further results
,850 nM,CS(=O)(=O)N1CCCCc2cc3c(-c4ncn[nH]4)c(-c4ccc(F)cc4)oc3cc21,,
9 nM,7 nM,CNC(=O)c1c(-c2ccc(F)cc2)oc2cc3c(cc12)C(C)OC(CS(C)(=O)=O)CN3S(C)(=O)=O (centres undefined),,EC50 [4]: 17 nM; EC50 [5]: 17 nM; EC50 [6]: 64 nM
> 2000 nM,,CNC(=O)c1c2cc3c(cc2nn1-c1ccc(F)cc1)N(S(C)(=O)=O)CCCC3C (centres undefined),,
,,CS(=O)(=O)N1CCCCc2cc3c(C4=NCCN4)c(-c4ccc(F)cc4)oc3cc21,> 2000 nM,
,5 nM,CNC(=O)c1c(-c2ccc(F)cc2)oc2cc3c(cc12)CCCCCN3S(C)(=O)=O,,
,,CS(=O)(=O)N1CCCCc2cc3c(C(N)=O)c(-c4ccc(F)cc4)oc3cc21,> 2000 nM,
26 nM,74 nM,CNC(=O)c1c(-c2ccc(F)cc2)oc2cc3c(cc12)C(C)n1ccnc1CN3S(C)(=O)=O (centres undefined),,
33 nM,8 nM,CNC(=O)c1c(-c2ccc(F)cc2)oc2cc3c(cc12)C(C)n1nnnc1CN3S(C)(=O)=O (centres undefined),,
,6 nM,CNC(=O)c1c(-c2ccc(F)cc2)oc2cc3c(cc12)C(C)n1nncc1CN3S(C)(=O)=O (centres undefined),,
93 nM,13 nM,CNC(=O)c1c(-c2ccc(F)cc2)oc2cc3c(cc12)[C@H](C)OC1(CC1)CN3S(C)(=O)=O,,
> 2000 nM,1210 nM,CNC(=O)c1c(-c2ccc(F)cc2)oc2cc3c(cc12)[C@@H](C)O[C@@H](CS(C)(=O)=O)CN3S(C)(=O)=O,,
,5 nM,CNC(=O)c1c(-c2ccc(F)cc2)oc2cc3c(cc12)[C@H](C)NC(=O)CN3S(C)(=O)=O,,
1800 nM,586 nM,CNC(=O)c1c(-c2ccc(F)cc2)oc2cc3c(cc12)[C@@H](C)NC(=O)CN3S(C)(=O)=O,,
40 nM,33 nM,CNC(=O)c1c(-c2ccc(F)cc2)oc2cc3c(cc12)C(C)OCC(CO)N3S(C)(=O)=O (centres undefined),,EC50 [4]: 117 nM; EC50 [5]: 53 nM; EC50 [6]: 141 nM
180 nM,17 nM,CNC(=O)c1c(-c2ccc(F)cc2)oc2cc3c(cc12)C(C)N(C)C(=O)CN3S(C)(=O)=O (centres undefined),,
554 nM,69 nM,CNC(=O)c1c(-c2ccc(F)cc2)oc2cc3c(cc12)[C@@H](C)O[C@H](CO)CN3S(C)(=O)=O,,
,1470 nM,CNC(=O)c1c(-c2ccc(F)cc2)oc2cc3c(cc12)[C@@H](C)O[C@@H](CO)CN3S(C)(=O)=O,,
,451 nM,CNC(=O)c1c(-c2ccc(F)cc2)oc2cc3c(cc12)CCCN3S(C)(=O)=O,,
52 nM,12 nM,CNC(=O)c1c(-c2ccc(F)cc2)oc2cc3c(cc12)C(C)OC(CO)CN3S(C)(=O)=O (centres undefined),,EC50 [4]: 32 nM; EC50 [5]: 20 nM; EC50 [6]: 62 nM

EC50 [1],EC50 [2],SMILES,EC50 [3],further results
> 2000 nM,666 nM,CNC(=O)c1c(-c2ccc(F)cc2)oc2cc3c(cc12)[C@@H](C)OC1(CC1)CN3S(C)(=O)=O,,
,,CN(C)C(=O)c1c(-c2ccc(F)cc2)oc2cc3c(cc12)CCCCN3S(C)(=O)=O,> 2000 nM,
102 nM,13 nM,CNC(=O)c1c(-c2ccc(F)cc2)oc2cc3c(cc12)[C@H](C)N(C)C(=O)CN3S(C)(=O)=O,,
> 2000 nM,,CCNC(=O)c1c(-c2ccc(F)cc2)oc2cc3c(cc12)CCCCN3S(C)(=O)=O,,
33 nM,8 nM,CNC(=O)c1c(-c2ccc(F)cc2)oc2cc3c(cc12)C(C)OC(C)CN3S(C)(=O)=O (centres undefined),,
,26 nM,CNC(=O)c1c(-c2ccc(F)cc2)oc2cc3c(cc12)CCCCCCN3S(C)(=O)=O,,
,,CS(=O)(=O)NC(=O)c1c(-c2ccc(F)cc2)oc2cc3c(cc12)CCCCN3S(C)(=O)=O,> 2000 nM,
4 nM,3 nM,CNC(=O)c1c(-c2ccc(F)cc2)oc2cc3c(cc12)[C@H](C)O[C@H](CS(C)(=O)=O)CN3S(C)(=O)=O,,EC50 [4]: 7 nM; EC50 [5]: 10 nM; EC50 [6]: 18 nM
16 nM,19 nM,CNC(=O)c1c(-c2ccc(F)cc2)oc2cc3c(cc12)C(C)OCC(CS(C)(=O)=O)N3S(C)(=O)=O (centres undefined),,EC50 [4]: 51 nM; EC50 [5]: 70 nM; EC50 [6]: 134 nM
100 nM,24 nM,CNC(=O)c1c(-c2ccc(F)cc2)oc2cc3c(cc12)[C@@H](C)O[C@H](CS(C)(=O)=O)CN3S(C)(=O)=O,,
688 nM,59 nM,CNC(=O)c1c(-c2ccc(F)cc2)oc2cc3c(cc12)[C@@H](C)N(C)C(=O)CN3S(C)(=O)=O,,
,,CS(=O)(=O)N1CCCCc2cc3c(C(=O)NC4CC4)c(-c4ccc(F)cc4)oc3cc21,> 2000 nM,
130 nM,19 nM,CNC(=O)c1c(-c2ccc(F)cc2)oc2cc3c(cc12)C(C)OC1(CC1)CN3S(C)(=O)=O (centres undefined),,
57 nM,13 nM,CNC(=O)c1c(-c2ccc(F)cc2)oc2cc3c(cc12)[C@H](C)O[C@@H](CS(C)(=O)=O)CN3S(C)(=O)=O,,
64 nM,13 nM,CNC(=O)c1c(-c2ccc(F)cc2)oc2cc3c(cc12)[C@H](C)O[C@@H](CO)CN3S(C)(=O)=O,,
,304 nM,CNC(=O)c1c(-c2ccc(F)cc2)oc2cc3c(cc12)CCN3S(C)(=O)=O,,
,,CS(=O)(=O)N1CCCCc2cc3c(C(=O)NC#N)c(-c4ccc(F)cc4)oc3cc21,> 2000 nM,
,3 nM,CNC(=O)c1c(-c2ccc(F)cc2)oc2cc3c(cc12)[C@H](C)n1nncc1CN3S(C)(=O)=O,,
,38 nM,CNC(=O)c1c(-c2ccc(F)cc2)oc2cc3c(cc12)[C@@H](C)n1nncc1CN3S(C)(=O)=O,,

SMILES,EC50 [1],EC50 [2],EC50 [3],further results
CNC(=O)c1c(-c2ccc(F)cc2)oc2cc3c(cc12)C1CC1CCN3S(C)(=O)=O (centres undefined),35 nM,9 nM,44 nM,
CNC(=O)c1c(-c2ccccc2F)oc2cc3c(cc12)C(C)CCCN3S(C)(=O)=O (centres undefined),,7 nM,11 nM,
CNC(=O)c1c(-c2ccc(F)cc2)oc2cc3c(cc12)CCCCN3S(=O)(=O)C1CC1,335 nM,73 nM,423 nM,
CNC(=O)c1c(-c2ccc(F)cc2)oc2cc3c(cc12)C(C)NCCN3S(C)(=O)=O (centres undefined),,43 nM,265 nM,
CNC(=O)c1c(-c2ccc(F)cc2)oc2cc3c(cc12)C(C)N(C)CCN3S(C)(=O)=O (centres undefined),,14 nM,50 nM,
CNC(=O)c1c(-c2ccc(F)cc2)oc2cc3c(cc12)[C@@H](C)OCCN3S(C)(=O)=O,,686 nM,624 nM,
CS(=O)(=O)N1CCCCc2cc3c(-c4ncc[nH]4)c(-c4ccc(F)cc4)oc3cc21,33 nM,5 nM,59 nM,
CNC(=O)c1c(-c2ccc(F)cc2)oc2cc3c(cc12)C1(CCCN3S(C)(=O)=O)CC1,,20 nM,118 nM,
CNC(=O)c1c(-c2ccc(F)cc2)oc2cc3c(cc12)[C@H](C)OCCN3S(C)(=O)=O,,3 nM,9 nM,
CNC(=O)c1c(-c2ccc(F)cc2)nn2cc3c(cc12)C(C)CCCN3S(C)(=O)=O (centres undefined),,109 nM,523 nM,
CNC(=O)c1c(-c2ccc(F)cc2)oc2cc3c(cc12)[C@H]1C[C@H]1CCN3S(C)(=O)=O,,> 2000 nM,> 2000 nM,
CNC(=O)c1c(-c2ccc(F)cc2OC)oc2cc3c(cc12)C(C)CCCN3S(C)(=O)=O (centres undefined),,56 nM,> 2000 nM,
CNC(=O)c1c(-c2ccc(F)cc2)oc2cc3c(cc12)C(C)=CCCN3S(C)(=O)=O,,16 nM,70 nM,
CNC(=O)c1c(-c2ccc(F)cc2)oc2cc3c(cc12)C(=O)CCCN3S(C)(=O)=O,,78 nM,318 nM,
CNC(=O)c1c(-c2ccc(F)cc2)nc2cc3c(cn12)C(C)CCCN3S(C)(=O)=O (centres undefined),,182 nM,801 nM,
CNC(=O)c1c(-c2ccc(F)cc2)oc2cc3c(cc12)[C@@H]1C[C@@H]1CCN3S(C)(=O)=O,,7 nM,25 nM,
CNC(=O)c1c(-c2ccc(F)cc2)oc2cc3c(cc12)[C@H](C)CCCN3S(C)(=O)=O,10 nM,4 nM,9 nM,
CNC(=O)c1c(-c2ccc(F)cc2)oc2cc3c(cc12)C(C)OCCN3S(C)(=O)=O (centres undefined),28 nM,11 nM,21 nM,
CNC(=O)c1c(-c2ccc(F)cc2)oc2cc3c(cc12)CCCCN3C(C)=O,> 2000 nM,,> 2000 nM,
CNC(=O)c1c(-c2ccc(F)cc2)oc2cc3c(cc12)C(C)CCCN3S(C)(=O)=O (centres undefined),,3 nM,10 nM,
CNC(=O)c1c(-c2ccc(F)cc2)oc2cc3c(cc12)[C@@H](C)CCCN3S(C)(=O)=O,,46 nM,89 nM,
C=C1CCCN(S(C)(=O)=O)c2cc3oc(-c4ccc(F)cc4)c(C(=O)NC)c3cc21,,26 nM,106 nM,
CNC(=O)c1c(-c2ccc(F)cc2)oc2cc3c(cc12)CCCCN3S(C)(=O)=O,,17 nM,83 nM,
CNC(=O)c1c(-c2ccc(F)cc2)oc2cc3c(cc12)CCCCN3C(=O)OC,,164 nM,722 nM,
CNC(=O)c1c(-c2ccc(F)cc2F)oc2cc3c(cc12)C(C)CCCN3S(C)(=O)=O (centres undefined),,8 nM,15 nM,
CNC(=O)c1c(-c2ccc(Oc3ccc(F)cc3)cc2)oc2cc3c(cc12)C(C)CCCN3S(C)(=O)=O (centres undefined),,14 nM,71 nM,
CNC(=O)c1c(-c2ccc(F)cc2)oc2cc3c(cc12)C(C)NC(=O)CN3S(C)(=O)=O (centres undefined),19 nM,15 nM,14 nM,
CNC(=O)c1c(-c2ccc(F)cc2)oc2cc3c(cc12)C(O)CCCN3S(C)(=O)=O (centres undefined),,107 nM,730 nM,
CONC(=O)c1c(-c2ccc(F)cc2)oc2cc3c(cc12)CCCCN3S(C)(=O)=O,,31 nM,90 nM,
CN(O)C(=O)c1c(-c2ccc(F)cc2)oc2cc3c(cc12)CCCCN3S(C)(=O)=O,,298 nM,> 2000 nM,
